Experimental findings from ChEMBL document CHEMBL1154476 (Eur J Med Chem, 2008) are described below.

The target in the test is T1, Ribosyldihydronicotinamide dehydrogenase [quinone] (Homo sapiens, UniProt P16083).
T1 sequence (P16083 whole entry): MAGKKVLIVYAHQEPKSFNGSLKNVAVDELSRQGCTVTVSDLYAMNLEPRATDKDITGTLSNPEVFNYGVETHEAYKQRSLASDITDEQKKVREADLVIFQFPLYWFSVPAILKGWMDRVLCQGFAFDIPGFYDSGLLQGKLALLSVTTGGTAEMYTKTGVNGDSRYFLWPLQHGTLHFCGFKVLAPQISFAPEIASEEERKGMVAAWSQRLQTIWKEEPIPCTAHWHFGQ
The test is described as follows: Displacement of [125I]iodomelatonin from MT3/QR2 melatonin binding site expressed in CHO cells. The class given is cell-based.
For `COC(=O)Nc1ccc2[nH]c(I)c(CCNC(C)=O)c2c1`, the IC50 (in general, the concentration needed to halve the response being measured) was 0.302 nM.

On to `COC(=O)c1ccc2occ(CCNC(=O)C3CCCC3)c2c1`, for which the IC50 is 18.2 nM.

`COc1ccc2c(c(CCNC(C)=O)cn2C)c1[N+](=O)[O-]` showed an IC50 of 0.309 nM.

`COC(=O)Nc1ccc2occ(CCNC(=O)C(C)C)c2c1` showed a 50% inhibitory concentration (IC50) of 22.9 nM.

`CNS(=O)(=O)c1ccc2cccc(CCNC(=O)c3ccco3)c2c1`: the IC50 was 9.12 nM.

In the case of `CC(=O)NCCc1c[nH]c2ccc([N+](=O)[O-])cc12`, the IC50 is 41.7 nM.

`COc1ccc2c(CCNC(=O)C3CCC3)cccc2c1` had a concentration for half-maximal inhibition (IC50) of 70.8 nM.

As to `C=CCC(=O)NCCc1cccc2ccc(O)cc12`, the 50% inhibitory concentration (IC50) was 7.76 nM.

In the case of `CC(=O)NCCc1cccc2ccc(S(N)(=O)=O)cc12`, the half-inhibitory concentration (IC50) is 32.4 nM.

For `COc1ccc2cccc(CC3=NC(=O)NC3=O)c2c1`, the IC50 was 61.7 nM.

For the compound `NC(=O)c1ccc2occ(CCNC(=O)c3ccco3)c2c1`, the concentration for half-maximal inhibition (IC50) is 67.6 nM.

On to `COC(=O)Nc1ccc2cccc(CNC(=O)C3CC3)c2c1`, for which the IC50 was 24 nM.

`COC(=O)Nc1ccc2occ(CCNC(C)=O)c2c1` gave a half-maximal inhibitory concentration (IC50) of 15.8 nM.

Take `COc1ccc2c(c1)c(CCNC(C)=O)cn2C`: the IC50 is 2.82 nM.

The compound `COc1ccc2cccc(CCNC(=O)c3ccccc3)c2c1` had an IC50 of 28.8 nM.

Regarding `COC(=O)Nc1ccc2occ(CCNC(=O)c3ccccc3)c2c1`, the 50% inhibitory concentration (IC50) was 67.6 nM.

On to `CC(=O)NCCc1cccc2ccc([S+](C)[O-])cc12` (centres undefined), for which the IC50 is 37.2 nM.

For the compound `O=C(NCCc1cccc2ccc(O)cc12)c1ccco1`, the IC50 is 11 nM.

`CSc1ccc2cccc(CCNC(C)=O)c2c1` showed an IC50 of 18.2 nM.

As for `COC(=O)c1ccc2occ(CCNC(C)=O)c2c1`, the IC50 is 14.1 nM.

Turning to `COc1ccc2cccc(CCNC(=O)c3ccco3)c2c1`, the IC50 was 53.7 nM.

For `COc1ccc2cccc(CCN3CCOC3=O)c2c1`, the 50% inhibitory concentration (IC50) is 14.1 nM.

In turn, `COC(=O)c1ccc2cccc(CNC(=O)c3ccco3)c2c1` showed an IC50 of 52.5 nM.

The compound `CS(=O)(=O)NCCc1cccc2ccccc12` gave a 50% inhibitory concentration (IC50) of 28.2 nM.

Turning to `CC(C)(C)OC(=O)NCCc1cccc2ccc(O)cc12`, the half-maximal inhibitory concentration (IC50) is 51.3 nM.

With `CNC(=O)c1ccc2cccc(CNC(C)=O)c2c1`, the IC50 was 12 nM.

Consider `C=CCC(=O)NCCc1coc2ccc(NC(=O)OC)cc12`, for which the 50% inhibitory concentration (IC50) is 11 nM.

Take `CC(=O)NCCc1cccc2ccc(S(C)(=O)=O)cc12`: the 50% inhibitory concentration (IC50) is 20.9 nM.

Consider `COc1ccc2occ(CCNC(C)=O)c2c1`, for which the 50% inhibitory concentration (IC50) is 64.6 nM.

In the case of `COC(=O)Nc1ccc2occ(CCNC(=O)c3ccco3)c2c1`, the IC50 is 56.2 nM.

In the case of `COc1ccc2cccc(CCNC(=O)C(C)C)c2c1`, the half-maximal inhibitory concentration (IC50) was 43.7 nM.

Compound `CCOC(=O)c1[nH]c2ccc(OC)cc2c1CCNC(C)=O` showed a 50% inhibitory concentration (IC50) of 3.02 nM.

Consider `COc1ccc2[nH]cc(CCNC(C)=O)c2c1[N+](=O)[O-]`, for which the IC50 was 1.2 nM.

As for `COc1ccc2cccc(CCNC(=O)CN3CCCC3=O)c2c1`, the IC50 is 61.7 nM.
